{"source": "patent US20250161281A1", "about": "“EMOPAMIL-BINDING PROTEIN INHIBITORS AND USES THEREOF” (BIOGEN MA INC., priority 2022, published 2025)", "molecular_target": "T1, EBP (Homo sapiens, UniProt Q15125)", "T1 construct": "HEK293T cells were utilized as the source of EBP enzyme; endogenous in cells; host or cells: HEK293T", "T1 sequence (Q15125 whole entry)": "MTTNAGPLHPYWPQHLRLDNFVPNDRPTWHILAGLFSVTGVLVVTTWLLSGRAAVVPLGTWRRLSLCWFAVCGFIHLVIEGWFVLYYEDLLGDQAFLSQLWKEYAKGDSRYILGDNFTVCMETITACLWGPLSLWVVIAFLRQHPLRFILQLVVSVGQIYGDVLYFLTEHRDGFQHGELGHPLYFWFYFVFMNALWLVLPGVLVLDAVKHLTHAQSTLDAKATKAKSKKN", "assay": "EBP Functional Assay (EBP immunoaffinity LC-MS assay)", "type": "biochemical", "conditions": "HEK293T cells as source of EBP enzyme; 30 min with inhibitor, then zymosterol-d5, 37° C. for 4 h; percent conversion by LC-APCI MRM MS", "procedure": "The EBP immunoaffinity (IA) LC-MS assay measures the potency of small molecule inhibitors of EBP by quantifying their concentration-dependent changes in the enzyme's substrate and product using liquid chromatography atmospheric pressure chemical ionization multiple reaction monitoring mass spectrometry (LC-APCI MRM MS). HEK293T cells were utilized as the source of EBP enzyme. The enzyme was incubated with the small molecule inhibitors at variable concentrations for 30 min. Deuterated form of EBP substrate, zymosterol-d5 (Avanti Polar Lipids, Cat #700068P-1 mg), was then added and the plate was incubated at 37° C. for 4 h. Finally, the sterol isomers were extracted and injected to LC-APCI MRM MS. MRM transition used for the quantification for both zymosterol and dihydrolathosterol (substrate and product of EBP enzymatic reaction, respectively) is 372.3-203.2, CE 30 and DP 80 in positive ion mode. Percent conversion of the zymosterol-d5 to dehydrolathosterol-d5 was used to derive IC50 curves. Tasin-1 (1′-[(4-Methoxyphenyl)sulfonyl]-4-methyl-1,4′-bipiperidine, CAS 792927-06-1) was used as the reference small molecule inhibitor. Percent conversion versus the compound concentration data were fit to the following 4-parameter logistic model to generate IC50 curves: […]"}
{"compound": "COc1cc(F)c(S(=O)(=O)N2[C@@H]3CC[C@H]2C[C@H](N2CCC(C)CC2)C3)c(F)c1", "note": "[Example 43, (1R,3s,5S)-8-((2,6-Difluoro-4-methoxyphenyl)sulfonyl)-3-(4-methylpiperidin-1-yl)-8-azabicyclo[3.2.1]octane]", "values": [{"measurement": "IC50", "result": "50 to 150", "unit": "nM"}]}
{"compound": "O=S(=O)(c1ccc(OC(F)F)cc1)N1[C@@H]2CC[C@H]1C[C@@H](NCC1(F)COC1)C2", "note": "(single isomer, unassigned) [Example 71]", "values": [{"measurement": "IC50", "result": "150 to 2000", "unit": "nM"}]}
{"compound": "O=S(=O)(c1ccc(OC(F)F)cc1)N1C2CCC1CC(NC1COC1)C2", "note": "(stereo not drawn) [Example 74, 8-((4-(Difluoromethoxy)phenyl)sulfonyl)-N-(oxetan-3-yl)-8-azabicyclo[3.2.1]octan-3-amine]", "values": [{"measurement": "IC50", "result": "> 2000", "unit": "nM"}]}
{"compound": "O=S(=O)(c1ccc(OC(F)F)cc1)N1[C@@H]2CC[C@H]1C[C@H](NC[C@H]1C[C@@H](O)C1)C2", "note": "(single isomer, unassigned) [Example 63]", "values": [{"measurement": "IC50", "result": "150 to 2000", "unit": "nM"}]}
{"compound": "CC(C)(O)CN[C@@H]1C[C@H]2CC[C@@H](C1)N2S(=O)(=O)c1ccc(OC(F)F)cc1", "note": "[Example 76, 1-(((1R,3s,5S)-8-((4-(Difluoromethoxy)phenyl)sulfonyl)-8-azabicyclo[3.2.1]octan-3-yl)amino)-2-methylpropan-2-ol]", "values": [{"measurement": "IC50", "result": "150 to 2000", "unit": "nM"}]}
{"compound": "Cc1nc(C(F)(F)F)ccc1S(=O)(=O)N1[C@@H]2CC[C@H]1C[C@H](NCC1CCOCC1)C2", "note": "(single isomer, unassigned) [Example 24]", "values": [{"measurement": "IC50", "result": "< 50", "unit": "nM"}]}
{"compound": "Cc1cc(C)c(S(=O)(=O)N2[C@@H]3CC[C@H]2C[C@H](CN2CCOCC2)C3)cn1", "note": "[Example 39, 4-(((1R,3s,5S)-8-((4,6-Dimethylpyridin-3-yl)sulfonyl)-8-azabicyclo[3.2.1]octan-3-yl)methyl)morpholine]", "values": [{"measurement": "IC50", "result": "50 to 150", "unit": "nM"}]}
{"compound": "COC1CCN(C2CC3CCC(C2)N3S(=O)(=O)c2ccc(OC(F)F)cc2)C1", "note": "(stereo not drawn) [Example 50, 8-((4-(Difluoromethoxy)phenyl)sulfonyl)-3-(3-methoxypyrrolidin-1-yl)-8-azabicyclo[3.2.1]octane]", "values": [{"measurement": "IC50", "result": "50 to 150", "unit": "nM"}]}
{"compound": "O=S(=O)(c1ccc(OC(F)F)cc1)N1C2CCC1CC(N[C@@H]1CCOC1)C2", "note": "(stereo partly drawn) [Example 70, 8-((4-(Difluoromethoxy)phenyl)sulfonyl)-N—((R)-tetrahydrofuran-3-yl)-8-azabicyclo[3.2.1]octan-3-amine]", "values": [{"measurement": "IC50", "result": "50 to 150", "unit": "nM"}]}
{"compound": "O=S(=O)(c1ccc(OC(F)F)cc1)N1C2CCC1CC(N1C3CCCC1CC(F)(F)C3)C2", "note": "(stereo not drawn) [Example 16, 9-(8-((4-(Difluoromethoxy)phenyl)sulfonyl)-8-azabicyclo[3.2.1]octan-3-yl)-3,3-difluoro-9-azabicyclo[3.3.1]nonane]", "values": [{"measurement": "IC50", "result": "< 50", "unit": "nM"}]}
{"compound": "CN(C1CCOCC1)[C@H]1C[C@H]2CC[C@@H](C1)N2S(=O)(=O)c1ccc(OC(F)F)cc1", "note": "[Example 65, (1R,3r,5S)-8-((4-(difluoromethoxy)phenyl)sulfonyl)-N-methyl-N-(tetrahydro-2H-pyran-4-yl)-8-azabicyclo[3.2.1]octan-3-amine]", "values": [{"measurement": "IC50", "result": "< 50", "unit": "nM"}]}
{"compound": "COCCC(C)NC1CC2CCC(C1)N2S(=O)(=O)c1ccc(OC(F)F)cc1", "note": "(stereo not drawn) [Example 52, 8-((4-(Difluoromethoxy)phenyl)sulfonyl)-N-(4-methoxybutan-2-yl)-8-azabicyclo[3.2.1]octan-3-amine]", "values": [{"measurement": "IC50", "result": "< 50", "unit": "nM"}]}
{"compound": "O=S(=O)(c1ccc(OC(F)F)cc1)N1C2CCC1CC(NC1CCOCC1)C2", "note": "(stereo not drawn) [Example 73, 8-((4-(Difluoromethoxy)phenyl)sulfonyl)-N-(tetrahydro-2H-pyran-4-yl)-8-azabicyclo[3.2.1]octan-3-amine]", "values": [{"measurement": "IC50", "result": "< 50", "unit": "nM"}]}
{"compound": "CC1CCN([C@@H]2C[C@H]3CC[C@@H](C2)N3S(=O)(=O)c2cn3c(n2)CCCC3C)CC1", "note": "(stereo partly drawn) [Example 11, 5-Methyl-2-(((1R,3s,5S)-3-(4-methylpiperidin-1-yl)-8-azabicyclo[3.2.1]octan-8-yl)sulfonyl)-5,6,7,8-tetrahydroimidazo[1,2-a]pyridine]", "values": [{"measurement": "IC50", "result": "< 50", "unit": "nM"}]}
{"compound": "Cc1ccnc(-n2cc(S(=O)(=O)N3[C@@H]4CC[C@H]3C[C@@H](N3CCC(C)CC3)C4)cn2)c1", "note": "[Example 40, (1R,3r,5S)-3-(4-methylpiperidin-1-yl)-8-((1-(4-methylpyridin-2-yl)-1H-pyrazol-4-yl)sulfonyl)-8-azabicyclo[3.2.1]octane]", "values": [{"measurement": "IC50", "result": "150 to 2000", "unit": "nM"}]}
{"compound": "O=S(=O)(c1ccc(OC(F)F)cc1)N1C2CCC1CC(NCC1CC(O)C1)C2", "note": "(single isomer, unassigned) [Example 61]", "values": [{"measurement": "IC50", "result": "50 to 150", "unit": "nM"}]}
{"compound": "Cc1nc(C(F)(F)F)ccc1S(=O)(=O)N1[C@@H]2CC[C@H]1C[C@H](NCC1(C)COC1)C2", "note": "(single isomer, unassigned) [Example 26]", "values": [{"measurement": "IC50", "result": "< 50", "unit": "nM"}]}
{"compound": "CC1CCN([C@@H]2C[C@H]3CC[C@@H](C2)N3S(=O)(=O)c2ccc3c(c2)CC(C)(C)C(=O)N3)CC1", "note": "[Example 5, 3,3-Dimethyl-6-(((1R,3s,5S)-3-(4-methylpiperidin-1-yl)-8-azabicyclo[3.2.1]octan-8-yl)sulfonyl)-3,4-dihydroquinolin-2(1H)-one]", "values": [{"measurement": "IC50", "result": "< 50", "unit": "nM"}]}
{"compound": "O=S(=O)(c1ccc(OC(F)F)cc1)N1[C@@H]2CC[C@H]1C[C@H](CN1CCOCC1)C2", "note": "[Example 67, 4-(((1R,3s,5S)-8-((4-(Difluoromethoxy)phenyl)sulfonyl)-8-azabicyclo[3.2.1]octan-3-yl)methyl)morpholine]", "values": [{"measurement": "IC50", "result": "< 50", "unit": "nM"}]}
{"compound": "CC1(CNC2C[C@H]3CC[C@@H](C2)N3S(=O)(=O)c2ccc(OC(F)F)cc2)COC1", "note": "(mixture of isomers) [Example 15, 8-((4-(Difluoromethoxy)phenyl)sulfonyl)-N-((3-methyloxetan-3-yl)methyl)-8-azabicyclo[3.2.1]octan-3-amine]", "values": [{"measurement": "IC50", "result": "< 50", "unit": "nM"}]}
{"compound": "Cc1cnn(C)c1S(=O)(=O)N1[C@@H]2CC[C@H]1C[C@H](N1CCC(C)CC1)C2", "note": "[Example 12, (1R,3s,5S)-8-((1,4-Dimethyl-1H-pyrazol-5-yl)sulfonyl)-3-(4-methylpiperidin-1-yl)-8-azabicyclo[3.2.1]octane]", "values": [{"measurement": "IC50", "result": "< 50", "unit": "nM"}]}
{"compound": "O=S(=O)(c1ccc(OC(F)F)cc1)N1[C@@H]2CC[C@H]1C[C@@H](NCC1CCOCC1)C2", "note": "[Example 32, (1R,3r,5S)-8-((4-(Difluoromethoxy)phenyl)sulfonyl)-N-((tetrahydro-2H-pyran-4-yl)methyl)-8-azabicyclo[3.2.1]octan-3-amine]", "values": [{"measurement": "IC50", "result": "< 50", "unit": "nM"}]}
{"compound": "O=S(=O)(c1ccc(OC(F)F)cc1)N1C2CCC1CC(NC1CCC1O)C2", "note": "(stereo not drawn) [Example 14, 2-((8-((4-(Difluoromethoxy)phenyl)sulfonyl)-8-azabicyclo[3.2.1]octan-3-yl)amino)cyclobutan-1-ol]", "values": [{"measurement": "IC50", "result": "< 50", "unit": "nM"}]}
{"compound": "O=S(=O)(c1ccc(OC(F)F)cc1)N1[C@@H]2CC[C@H]1C[C@@H](NC[C@H]1C[C@@H](O)C1)C2", "note": "(single isomer, unassigned) [Example 64]", "values": [{"measurement": "IC50", "result": "50 to 150", "unit": "nM"}]}
{"compound": "CC1CCN([C@@H]2C[C@H]3CC[C@@H](C2)N3S(=O)(=O)c2csc(C(F)(F)F)n2)CC1", "note": "[Example 42, 4-(((1R,3s,5S)-3-(4-Methylpiperidin-1-yl)-8-azabicyclo[3.2.1]octan-8-yl)sulfonyl)-2-(trifluoromethyl)thiazole]", "values": [{"measurement": "IC50", "result": "150 to 2000", "unit": "nM"}]}
{"compound": "Cc1cc(S(=O)(=O)N2[C@@H]3CC[C@H]2C[C@H](CN2CCOCC2)C3)n(C)n1", "note": "[Example 36, 4-(((1R,3s,5S)-8-((1,3-Dimethyl-1H-pyrazol-5-yl)sulfonyl)-8-azabicyclo[3.2.1]octan-3-yl)methyl)morpholine]", "values": [{"measurement": "IC50", "result": "< 50", "unit": "nM"}]}
{"compound": "CC(O)CNC1CC2CCC(C1)N2S(=O)(=O)c1ccc(OC(F)F)cc1", "note": "(stereo not drawn) [Example 48, 1-((8-((4-(Difluoromethoxy)phenyl)sulfonyl)-8-azabicyclo[3.2.1]octan-3-yl)amino)propan-2-ol]", "values": [{"measurement": "IC50", "result": "150 to 2000", "unit": "nM"}]}
{"compound": "CC1CCN([C@H]2C[C@H]3CC[C@@H](C2)N3S(=O)(=O)c2ccc(OC(F)F)cc2)CC1", "note": "[Example 20, (1R,3r,5S)-8-((4-(difluoromethoxy)phenyl)sulfonyl)-3-(4-methylpiperidin-1-yl)-8-azabicyclo[3.2.1]octane]", "values": [{"measurement": "IC50", "result": "< 50", "unit": "nM"}]}
{"compound": "CC1CCN([C@H]2C[C@H]3CC[C@@H](C2)N3S(=O)(=O)c2cnc(C3CCOCC3)o2)CC1", "note": "[Example 2, 5-(((1R,3r,5S)-3-(4-Methylpiperidin-1-yl)-8-azabicyclo[3.2.1]octan-8-yl)sulfonyl)-2-(tetrahydro-2H-pyran-4-yl)oxazole]", "values": [{"measurement": "IC50", "result": "< 50", "unit": "nM"}]}
{"compound": "O=S(=O)(c1ccc(OC(F)F)cc1)N1[C@@H]2CC[C@H]1C[C@@H](NCC1COC1)C2", "note": "[Example 72, (1R,3r,5S)-8-((4-(Difluoromethoxy)phenyl)sulfonyl)-N-(oxetan-3-ylmethyl)-8-azabicyclo[3.2.1]octan-3-amine]", "values": [{"measurement": "IC50", "result": "< 50", "unit": "nM"}]}
{"compound": "Cc1nn(C)c2ncc(S(=O)(=O)N3[C@@H]4CC[C@H]3C[C@H](N3CCC(C)CC3)C4)cc12", "note": "[Example 45, 1,3-Dimethyl-5-(((1R,3s,5S)-3-(4-methylpiperidin-1-yl)-8-azabicyclo[3.2.1]octan-8-yl)sulfonyl)-1H-pyrazolo[3,4-b]pyridine]", "values": [{"measurement": "IC50", "result": "150 to 2000", "unit": "nM"}]}
{"compound": "CC1CCN([C@@H]2C[C@H]3CC[C@@H](C2)N3S(=O)(=O)c2c3c(nn2C)CCOC3)CC1", "note": "[Example 9, 2-Methyl-3-(((1R,3s,5S)-3-(4-methylpiperidin-1-yl)-8-azabicyclo[3.2.1]octan-8-yl)sulfonyl)-2,4,6,7-tetrahydropyrano[4,3-c]pyrazole]", "values": [{"measurement": "IC50", "result": "< 50", "unit": "nM"}]}
{"compound": "CC(O)CCN[C@H]1C[C@H]2CC[C@@H](C1)N2S(=O)(=O)c1ccc(OC(F)F)cc1", "note": "(mixture of isomers) [Example 59, rac-4-(((1R,3r,5S)-8-((4-(difluoromethoxy)phenyl)sulfonyl)-8-azabicyclo[3.2.1]octan-3-yl)amino)butan-2-ol]", "values": [{"measurement": "IC50", "result": "50 to 150", "unit": "nM"}]}
